Measured values taken from PubChem BioAssay AID1918939 (Molecular Pharmacology Branch, DTP, NCI, 2023).

Test system: 653999-131-R-J2-PDC complex spheroid viability
Test: Anticancer human tumor 653999-131-R-J2-PDC patient-derived lung adenocarcinoma cell line growth inhibition
Conditions: for IC50: curve of first compound; for viability, T/C: stronger effect = lower value
Method in brief: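 Multicellular complex spheroids of tumor cells with human endothelial cells (HUVEC) and mesenchymal stem cells; the LSD1 inhibitor iadademstat was combined with standard-of-care or investigational agents. Top concentration at or near clinical Cmax, half-log dilutions; final DMSO ≤0.25%.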

[1] = second compound 0.1 µM, first compound 0.0316 µM
[2] = second compound 0.1 µM, first compound 0.1 µM
[3] = second compound 0.1 µM, first compound 0.316 µM
[4] = second compound 0.1 µM, first compound 1 µM
[5] = second compound 0.1 µM, first compound 3.16 µM
[6] = second compound 0.1 µM, first compound 10 µM
[7] = second compound 0.316 µM, first compound 0.0316 µM
[8] = second compound 0.316 µM, first compound 0.1 µM
[9] = second compound 0.316 µM, first compound 0.316 µM
[10] = second compound 0.316 µM, first compound 1 µM
[11] = second compound 0.316 µM, first compound 3.16 µM
[12] = second compound 0.316 µM, first compound 10 µM
[13] = second compound 1 µM, first compound 0.0316 µM
[14] = second compound 1 µM, first compound 0.1 µM
[15] = second compound 1 µM, first compound 0.316 µM
[16] = second compound 1 µM, first compound 1 µM
[17] = second compound 1 µM, first compound 3.16 µM
[18] = second compound 1 µM, first compound 10 µM
[19] = second compound 3.16 µM, first compound 0.0316 µM
[20] = second compound 3.16 µM, first compound 0.1 µM
[21] = second compound 3.16 µM, first compound 0.316 µM
[22] = second compound 3.16 µM, first compound 1 µM
[23] = second compound 3.16 µM, first compound 3.16 µM
[24] = second compound 3.16 µM, first compound 10 µM
[25] = second compound 10 µM, first compound 0.0316 µM
[26] = second compound 10 µM, first compound 0.1 µM
[27] = second compound 10 µM, first compound 0.316 µM
[28] = second compound 10 µM, first compound 1 µM
[29] = second compound 10 µM, first compound 3.16 µM
[30] = second compound 10 µM, first compound 10 µM
[31] = second compound 0.1 µM, first compound 0.00316 µM
[32] = second compound 0.1 µM, first compound 0.01 µM
[33] = second compound 0.316 µM, first compound 0.00316 µM
[34] = second compound 0.316 µM, first compound 0.01 µM
[35] = second compound 1 µM, first compound 0.00316 µM
[36] = second compound 1 µM, first compound 0.01 µM
[37] = second compound 3.16 µM, first compound 0.00316 µM
[38] = second compound 3.16 µM, first compound 0.01 µM
[39] = second compound 10 µM, first compound 0.00316 µM
[40] = second compound 10 µM, first compound 0.01 µM
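Also: spheroids exposed to agents for seven days before readout.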

Row | Structure (SMILES) | IC50 (second compound 0.1 µM) [nM] | IC50 (second compound 0.316 µM) [nM] | IC50 (second compound 1 µM) [nM] | IC50 (second compound 3.16 µM) [nM] | IC50 (second compound 10 µM) [nM] | viability, T/C [1] [%] | viability, T/C [2] [%] | viability, T/C [3] [%] | viability, T/C [4] [%] | viability, T/C [7] [%] | viability, T/C [8] [%] | viability, T/C [9] [%] | viability, T/C [10] [%] | viability, T/C [13] [%] | viability, T/C [14] [%] | viability, T/C [15] [%] | viability, T/C [16] [%] | viability, T/C [19] [%] | viability, T/C [20] [%] | viability, T/C [21] [%] | further results
1 | CC(C)c1c(-c2ccccc2)nc2c(C#N)c[nH]n2c1=O + NC1CCC(NC2CC2c2ccccc2)CC1 | > 10000 | > 10000 | > 10000 | > 10000 | > 10000 | 92.5 | 97.8 | 91.4 | 80.6 | 94.5 | 89.6 | 100 | 82.3 | 94.2 | 105 | 92.8 | 84.9 | 85.9 | 103 | 84.6 | viability, T/C [5]: 91.8%; viability, T/C [6]: 91.5%; viability, T/C [11]: 85.5%; viability, T/C [12]: 77.5%; viability, T/C [17]: 87.2%; viability, T/C [18]: 85.1%; viability, T/C [22]: 95.1%; viability, T/C [23]: 89%; viability, T/C [24]: 80%; viability, T/C [25]: 91.9%; viability, T/C [26]: 88.1%; viability, T/C [27]: 82.6%; viability, T/C [28]: 78.1%; viability, T/C [29]: 75.5%; viability, T/C [30]: 69.4%
2 | CC1COCCN1c1cc(-c2ccnn2C)c2ccnc(-c3ccn[nH]3)c2n1 (stereo not given) + NC1CCC(NC2CC2c2ccccc2)CC1 | 23 | 21.8 | 35.3 | 24.4 | 31.8 | 42.8 | 33 | 32.3 | 27.1 | 48.1 | 32.3 | 28.1 | 27.7 | 52 | 35.9 | 33.9 | 27.9 | 44.8 | 37.3 | 31.1 | viability, T/C [31]: 85.9%; viability, T/C [32]: 67.7%; viability, T/C [33]: 79.6%; viability, T/C [34]: 59%; viability, T/C [35]: 78.1%; viability, T/C [36]: 67.7%; viability, T/C [37]: 92.2%; viability, T/C [38]: 64.1%; viability, T/C [22]: 27.8%; viability, T/C [39]: 84.4%; viability, T/C [40]: 68.1%; viability, T/C [25]: 50.9%; viability, T/C [26]: 36.5%; viability, T/C [27]: 33.5%; viability, T/C [28]: 30.1%
3 | COc1ccc([C@@H](O)c2cc(-c3ncnc4cc(N5CCOCC5)ccc34)c(F)cc2Cl)nn1 + NC1CCC(NC2CC2c2ccccc2)CC1 | 1830 | 1750 | 2560 | 2250 | 1720 | 97.4 | 94.9 | 68.8 | 61.5 | 106 | 85.3 | 74.7 | 60.8 | 96.5 | 98 | 76.6 | 68.5 | 84.2 | 114 | 78.1 | viability, T/C [5]: 42%; viability, T/C [6]: 30.9%; viability, T/C [11]: 39%; viability, T/C [12]: 28.1%; viability, T/C [17]: 45.7%; viability, T/C [18]: 29.4%; viability, T/C [22]: 65.2%; viability, T/C [23]: 46.4%; viability, T/C [24]: 31.5%; viability, T/C [25]: 108%; viability, T/C [26]: 98%; viability, T/C [27]: 72%; viability, T/C [28]: 57%; viability, T/C [29]: 44.6%; viability, T/C [30]: 29.4%
4 | O=C(C=Cn1cnc(-c2cc(C(F)(F)F)cc(C(F)(F)F)c2)n1)NNc1cnccn1 + NC1CCC(NC2CC2c2ccccc2)CC1 | 4.91 | 8.22 | 12.7 | 11.1 | 9.83 | 35.8 | 30.6 | 31.8 | 19.6 | 40.9 | 34.6 | 29.4 | 26.2 | 48 | 34.6 | 30.6 | 22.4 | 42.7 | 35.4 | 29.1 | viability, T/C [31]: 53.1%; viability, T/C [32]: 46.5%; viability, T/C [33]: 57.2%; viability, T/C [34]: 48.7%; viability, T/C [35]: 53.6%; viability, T/C [36]: 50.1%; viability, T/C [37]: 64%; viability, T/C [38]: 46.3%; viability, T/C [22]: 21.9%; viability, T/C [39]: 60.4%; viability, T/C [40]: 45.5%; viability, T/C [25]: 41%; viability, T/C [26]: 40.6%; viability, T/C [27]: 32.5%; viability, T/C [28]: 24.2%
